Laboratory results reported in US20220062296A1, “COMBINATIONS OF GABAA ALPHA 5 AGONISTS AND SV2A INHIBITORS AND METHODS OF USING IN THE TREATMENT OF COGNITIVE IMPAIRMENT” (AGENEBIO, INC., priority 2020, published 2022).
Entries after “also recorded” stand apart in the source; their conditions may differ.

How the values were obtained:
[1] = Dynamic vapor sorption (DVS); type: physicochemical; settings: for form recovered after the DVS experiment (XRPD): post DVS
Procedure: Dynamic vapor sorption data was collected on a Surface Measurement System DVS Intrinsic instrument. The samples were not dried prior to analysis. Sorption and desorption data were collected over a range from 5% to 95% RH in 10% RH increments under a nitrogen purge. The equilibrium criteria used for the analyses were 0.001 dm/dt weight change in 5 minutes with a minimum step time of 30 minutes and maximum equilibration time of 180 minutes with a 3-minute data logging interval. Data were not corrected for the initial moisture content of the sample. The samples were identified as having low, limited or significant hygroscopicity based on the definitions in the below table.

[2] = Differential scanning calorimetry / thermogravimetry (DSC, TGA); type: physicochemical; settings: 10° C./min
Procedure: DSC was performed using a Mettler-Toledo DSC3+ differential scanning calorimeter. A tau lag adjustment is performed with indium, tin, and zinc. The temperature and enthalpy are adjusted with octane, phenyl salicylate, indium, tin and zinc. The adjustment is then verified with octane, phenyl salicylate, indium, tin, and zinc. The sample was placed into a hermetically sealed aluminum DSC pan, the weight was accurately recorded, and the sample was inserted into the DSC cell. A weighed aluminum pan configured as the sample pan was placed on the reference side of the cell. The pan lid was pierced prior to sample analysis. The samples were analyzed from −25° C. to 250° C. at 10° C./min.
Thermogravimetric analyses were performed using a Mettler-Toledo TGA/DSC3+ analyzer. Temperature calibration was performed using calcium oxalate, indium, tin, and zinc. The sample was placed in an aluminum pan. The pan was hermetically sealed, the lid was pierced, and the pan was then inserted into the TG furnace. A weighed aluminum pan configured as the sample pan was placed on the reference platform. The furnace was heated under nitrogen. Samples were analyzed from 25° C. to 350° C. at 10° C./min.

[3] = Competitive interconversion slurry experiments between crystalline forms (relative thermodynamic stability); type: physicochemical; settings: ambient temperature; Form E also 55° C. and 77° C.
Procedure: Interconversion experiments were performed to identify the most thermodynamically stable anhydrous form of Compound 1 (Table 19). […] The choice of solvent affects the kinetics of polymorph conversion and not the thermodynamic relationship between polymorphic forms.
Various combinations of Forms B, E, F, and Material D were slurried with Form A at ambient and elevated temperatures (for experiments involving Form E). Different solvent systems were used and included a variety of water activities. Saturated solutions were generated and then added to the mixtures composed of approximately equivalent quantities of the forms. The mixtures were slurried for a particular duration of time and the solids harvested and analyzed by XRPD.

[4] = Storage and stress stability of crystalline forms (XRPD); type: physicochemical; settings: for stability under ambient storage: ambient conditions
Procedure: XRPD patterns were collected with a PANalytical X'Pert PRO MPD or a PANalytical Empyrean diffractometer using an incident beam of Cu radiation produced using an Optix long, fine-focus source. An elliptically graded multilayer mirror was used to focus Cu Kα X-rays through the specimen and onto the detector. Prior to the analysis, a silicon specimen (NIST SRM 640e) was analyzed to verify the observed position of the Si 111 peak is consistent with the NIST-certified position. A specimen of the sample was sandwiched between 3-μm-thick films and analyzed in transmission geometry. A beam-stop, short antiscatter extension, and antiscatter knife edge were used to minimize the background generated by air. Sober slits for the incident and diffracted beams were used to minimize broadening from axial divergence. Diffraction patterns were collected using a scanning position-sensitive detector (X'Celerator) located 240 mm from the specimen and Data Collector software v. 5.5.

MAM-treated rats = settings: cited from earlier work
[5] = test system: memory-impaired aged (AI) rats; experiment: Radial arm maze task with 2-hr retention interval, acute brivaracetam or seletracetam; type: in vivo, rat; settings: doses 0.0625-4 mg/kg i.p.; repeated measures ANOVA
Procedure: (§1) The radial arm maze experiments used acute administration of seletracetam (0-4 mg/kg), brivaracetam (0-4 mg/kg), or saline vehicle given by intraperitoneal injection (in a volume of 1 ml/kg) 30-40 min prior to test sessions.
A radial arm maze (RAM) task was used to assess effects of acute drug treatment with seletracetam and brivaracetam. This protocol allowed within-subject assessment across drugs at different doses. The radial maze consisted of eight arms projecting from each side of an octagonal center platform, with a food well located at the distal end of each arm. Plexiglas blocks could be positioned to prevent entry into any arm. Extra-maze cues were provided in the room surrounding the maze and illumination was provided by an overhead light.
Pre-training, as described in detail in Chappell et al. Neuropharmacology 37: 481-487, (1998), consisted of habituation, standard win-shift training, and win-shift training with delays interposed between information and memory test phases. Drug treatments began two days after the completion of pre-training. Three arms were blocked at the beginning of each trial (information phase). The identity and configuration of the blocked arms were varied across trials. Food-deprived rats were allowed to retrieve food reward (Kellogg's Froot Loops™ cereal) from the five unblocked arms. […]

aged-impaired rats = experiment: Water maze probe test after chronic brivaracetam (osmotic mini-pumps); type: in vivo, rat; settings: 2 mg/kg/day
Procedure: as §1
Rats were trained and tested in a novel water maze environment to assess the effect of drug treatment. The water maze used here was housed in a different building and was surrounded by curtains with a novel set of patterns relative to the maze used for initial assessment of cognitive status. The training protocol consisted of 6 trials per day for 2 days to locate a submerged escape platform. On each trial, a rat was released in the maze from one of four equally spaced starting positions around the perimeter of the pool. The starting position varied from trial to trial. […] The rat was then removed from the platform and placed in a holding cage for another 40 s before the next trial. Approximately 24 hr after the last training trial, a probe test in the absence of the escape platform was given to assess spatial memory.

For `COCc1nnc2n1Cc1c(C#Cc3cnc(OC)s3)ncn1-c1ccc(Cl)cc1-2` [Form A], the “hygroscopicity (DVS isotherm)” value ([1]; 5% to 95% RH) was “low hygroscopicity; also recorded: limited hygroscopicity”, the “weight change through the sorption/desorption cycle” value ([1]; 5% to 95% RH, no hysteresis) was roughly 0.3% and the “form recovered after the DVS experiment (XRPD)” value [1] was “same as the starting material”. The “onset of DSC exotherm due to decomposition” value (from here on “onset of DSC exotherm due”) [2] was “about 207 °C” and the “outcome of solvent-mediated interconversion with Form A (relative thermodynamic stability)” value (from here on “outcome … (relative thermodynamic stability)”) [3] was “Form A prevailed for each experiment”.
For `COCc1nnc2n1Cc1c(C#Cc3cnc(OC)s3)ncn1-c1ccc(Cl)cc1-2` [Form B], the “onset of DSC exotherm due” value [2] was “about 190 °C” and the “outcome … (relative thermodynamic stability)” value [3] was “convert to Form A”.
For `COCc1nnc2n1Cc1c(C#Cc3cnc(OC)s3)ncn1-c1ccc(Cl)cc1-2` [Form C], the “onset of DSC exotherm due” value [2] was 190 °C, the “behaviour upon overnight exposure to 80° C.” value ([4]; 80° C., overnight) was “desolvate to Form B” and the “stability under ambient storage” value [4] was “remain unchanged for 9 weeks”.
In the case of `COCc1nnc2n1Cc1c(C#Cc3cnc(OC)s3)ncn1-c1ccc(Cl)cc1-2` [Form E], the “onset of DSC exotherm due” value [2] is reported as roughly 201 °C and the “outcome … (relative thermodynamic stability)” value [3] is reported as “metastable relative to Form A”.
With `COCc1nnc2n1Cc1c(C#Cc3cnc(OC)s3)ncn1-c1ccc(Cl)cc1-2` [Form F] the “hygroscopicity (DVS isotherm)” value ([1]; 5% to 95% RH) was “limited hygroscopicity”, the “weight gain on sorption” value ([1]; from 5-95% RH) was 1.8% and the “form recovered after the DVS experiment (XRPD)” value [1] was “still Form F”. For the same molecule, the “weight loss upon desorption” value ([1]; significant hysteresis) was 1.5%, the “onset of DSC exotherm due” value [2] was “above 120 °C” and the “behaviour upon exposure to 100° C.” value ([4]; 100° C.) was “does dehydrate”. The “stability under vacuum at ambient temperature” value ([4]; vacuum, ambient temperature) was “remain unchanged for 5 days”.
For `COCc1nnc2n1Cc1c(C#Cc3cnc(OC)s3)ncn1-c1ccc(Cl)cc1-2` [Material D], the “onset of DSC exotherm due” value [2] was roughly 174 °C, the “stability under ambient storage” value [4] was “Material D still remained” and the “outcome … (relative thermodynamic stability)” value [3] was “convert to Form A”.
For `C#Cc1ccc2c(c1)C(c1ccccc1F)=N[C@H](C)c1c(C(=O)OCC)ncn1-2` [SH-053-2′F—R—CH3], the “number of spontaneously active DA neurons in the ventral tegmental area (VTA)” value (MAM-treated rats; MAM rats, systemic or infused into the ventral HPC) is listed as “reduces the number of spontaneously active DA neurons”, the “increased locomotor response to amphetamine” value (MAM-treated rats; MAM-treated rats) is listed as “is reduced” and the “cortical-evoked responses of HPC neurons” value (MAM-treated rats; saline-treated and MAM-treated animals) is listed as “diminished cortical-evoked responses”.
With `CCC[C@@H]1CC(=O)N([C@@H](CC)C(N)=O)C1` [brivaracetam, (2S)-2-[(4R)-2-oxo-4-propylpyrrolidin-1-yl]butanamide] the “number of errors in the retention phase after the 2-hr delay” value [5] was “significant effect as a function of dose”, the “spatial bias for the target quadrant compared to the other control quadrants” value (aged-impaired rats; osmotic mini-pumps, started two weeks before, p=0.010) was “significant spatial bias for the target quadrant” and the “time in the target quadrant vs vehicle-treated rats” value (aged-impaired rats; p=0.018) was “significantly more time in the target quadrant”. For the same molecule, the “time in the target annulus vs vehicle-treated rats” value (aged-impaired rats; p=0.036) was “significantly more time in the target annulus”.
In the case of `CC[C@@H](C(N)=O)N1C[C@H](C=C(F)F)CC1=O` [seletracetam, (2S)-2-[(4S)-4-(2,2-difluoroethenyl)-2-oxopyrrolidin-1-yl]butanamide], the “number of errors in the retention phase after the 2-hr delay” value [5] is reported as “significant effect as a function of dose”.
